Data: patent publication US20200010910A1, “Cytotoxic Chemotherapy-Based Predictive Assays for Acute Myeloid Leukemia” (The Regents of The University of California, priority 2017, published 2020)
Blank lines part the entries; values can stand above or below the compound they belong to.

Columns and labels:
[1] = test system: MOLM-13; test: ARA-C incorporation into DNA by AMS; assay type: cell-based, human; conditions: MOLM-13 (most sensitive); 1.6 nM or 16 nM ARA-C 24 hrs
Procedure: (§1) MV-4-11, THP-1, and MOLM-13 cells are human, immortalized, myelogenous leukemia cell lines that proliferate continuously in suspension. These cell lines serve as a cell culture model for AML. Suspension cultures consisting of two million cells in […] culture dishes were treated with ARA-C for 24 hrs (to simulate CIV) prior to DNA isolation. The cultures were dosed with a low (1.6 nM) or a high (16 nM) dose of ARA-C supplemented with 0.8 nM ^14C-labeled ARA-C (100 dpm/mL, 2.4-16.7 mCi/mmol specific activity), and isolated DNA was analyzed by AMS to determine drug-DNA adduct levels. The suspension cell lines were dosed in primary cell media (IMDM+20% BIT9500 serum substitute, 20 ng/mL IL-3, 10 ng/mL IL-6, 20 ng/mL G-CSF, 20 ng/mL GM-CSF, 50 ng/mL SCF) to mimic the dosing conditions that will be used for patient-derived AML samples. This media is used for short term culturing of primary AML cells that are previously collected from patients, frozen and stored in a biobank.

[2] = test system: THP-1; test: ARA-C incorporation into DNA by AMS; assay type: cell-based, human; conditions: THP-1 (least sensitive); 1.6 nM or 16 nM ARA-C 24 hrs
Procedure: as §1

[3] = test system: MV-4-11; test: CellTiter 96 Aqueous cell proliferation assay; assay type: cell-based; conditions: Homo sapiens, MV4-11, 72 hr continuous treatment
From the text: (§2) Correlation of IC50 to the AML induction drugs Dox and Ara-C were first performed with the adherent bladder cancer cell lines 5637 and 5637R for cytarabine and with the adherent ovarian cancer cell lines A2780 and A2780ADR for doxorubicin. Cell lines 5637 and 5637R (Ara-C resistant) have been described previously (20). A2780 and A2780ADR (doxorubicin resistant) were purchased from Sigma-Aldrich and grown as recommended. IC50 values were obtained by plating 4000 cells per well in 96-well plates the night before treatment, and then allowing the cells to adhere over night. Leukemia cell lines capable of continuous proliferation in suspension and having differential sensitivities to Dox and Ara-C were also obtained for correlation analysis. MV-4-11 (acute monocytic leukemia) and THP-1 (acute monocytic leukemia) human cell lines were purchased from American Type Culture Collection (ATCC, Manassas, Va.). MOLM-13 (acute myeloid leukemia) human cells were purchased from AddexBio (San Diego, Calif.). For leukemia cell lines (suspension cultures), approximately 8,000-11,000 cells were seeded per well in 96-well plates the day of treatment. MV-4-11 cells were grown in IMDM (Iscove's Modified Dulbecco's Media) with 10% FBS, 100 U/ml penicillin, and 100 μg/ml streptomycin. THP-1, A2780, and A2780ADR cells were grown in RPMI-1640 media with 10% FBS, 100 U/ml penicillin, and 100 μg/ml streptomycin. 5637, 5637R, and MOLM-13 cells were grown in RPMI-1640 media with 20% FBS, 100 U/ml penicillin, and 100 μg/ml streptomycin. All cells were cultured at 37° C. in a humidified incubator. The cells were then incubated with increasing doses of cytarabine or doxorubicin continuously for 72 hours. IC50 values were determined using the CellTiter 96 Aqueous Non-Radioactive Cell Proliferation Assay (Promega). […] As shown, 5637 and 5673R have differential sensitivity to cytarabine, while A2780 and A2780ADR have differential sensitivity to doxorubicin. The leukemic suspension cell lines also have differential sensitivity to these two drugs.

[4] = test system: 5637R; test: CellTiter 96 Aqueous cell proliferation assay; assay type: cell-based; conditions: Homo sapiens, 72 hr continuous treatment
From the text: as §2

[5] = test system: MOLM-13; test: CellTiter 96 Aqueous cell proliferation assay; assay type: cell-based; conditions: Homo sapiens, 72 hr continuous treatment
From the text: as §2

[6] = test system: 5637; test: CellTiter 96 Aqueous cell proliferation assay; assay type: cell-based; conditions: Homo sapiens, 72 hr continuous treatment
From the text: as §2

[7] = test system: THP-1; test: CellTiter 96 Aqueous cell proliferation assay; assay type: cell-based; conditions: Homo sapiens, 72 hr continuous treatment
From the text: as §2

[8] = test system: 5637 and 5637R bladder cancer cell lines; test: cytarabine-DNA adducts by AMS, CIV and bolus type treatment; assay type: cell-based, human; conditions: low dose or high dose; CIV and bolus treatment regimens
Procedure: Sensitive and resistant bladder cancer cells were treated with Ara-C in culture. Two treatment conditions were used, one to mimic clinically continuous infusion (CIV) and one to mimic clinically bolus infusion (bolus infusions use a much higher Ara-c dose). The day before treatment, one million bladder cancer cells were seeded in 60-mm dishes and allowed to attach overnight. To simulate CIV treatment, the bladder cancer cell lines were exposed in growth medium with a low (10 nM) or a high (1 μM) dose of ARA-C supplemented with 8 nM ^14C-labeled ARA-C(1000 dpm/mL-20-0.4 mCi/mmol specific activity (Moravek Biochemicals, Inc.) over 24 h (FIG. 25A). At 24 hrs, the cells were harvested and washed for subsequent DNA isolation using the Wizard Genomic DNA Purification Kit. To simulate bolus treatment, the bladder cancer cell lines were exposed in growth medium with a low dose (3 μM) or a high dose ([…]; a highly toxic concentration for these cell lines) supplemented with 0.8 nM ^14C-labeled ARA-C (0.0001 mCi/mmol specific activity) for 4 h, followed by 20 h in drug-free media (FIG. 25B). After a 4-hour incubation, the cells were washed three times with PBS and cultured in drug-free media for an additional 20 hours. DNA from cells isolated at 24 hours was then purified. […] The ratios of ^14C to total C were measured by AMS, and drug-DNA adducts per ten million nucleotides were calculated.

[9] = test system: 5637; test: MTT assay IC50, bladder cancer cell line; assay type: cell-based, human; conditions: 72 hours
Procedure: Thus, we measured the IC50 of the six NSCLC cell lines from Example 2 to both cisplatin and carboplatin to determine if the sensitivity of these six NSCLC cell lines to the two drugs are correlated.
(§3) Drug-DNA adduct formation and repair was measured by accelerator mass spectrometry.
(§4) These two cell lines were also cultured with a range of concentrations of cisplatin, carboplatin, gemcitabine, doxorubicin, methotrexate and vinblastine for 72 hours to determine IC50 for these other drugs (FIG. 16C). These drugs were chosen because of their frequent use in the treatment of bladder cancer.

[10] = sterile solution in water, storage at −20° C.
Procedure: Radiolabeled carboplatin containing C^14 carbon atoms in the cyclobutane dicarboxylic acid group was formulated for human use as a sterile, pyrogen free solution at 5 mg/mL in water.

[11] = safety of radiolabeled microdose in patients; conditions: IV microdose, 1% of the therapeutic dose
Procedure: Microdoses of the [^14C]Carboplatin were administered to human cancer patients as a diagnostic reagent, followed by full dose platinum-based chemotherapy and evaluation of response. Within four weeks of the [^14C]carboplatin microdose, these patients received standard of care chemotherapy for their disease, which included either carboplatin or cisplatin. The patient population consisted of non-small cell lung cancer patients (NSCLC), stage IV with measurable lesions, and bladder transitional cell carcinoma (TCC) patients, stage II disease and above for neoadjuvant treatment, or stage III and IV metastatic disease with measurable lesions for palliative chemotherapy. Patients were identified for this study as having measurable lesions using the Response Evaluation Criteria in Solid Tumor (RECIST), an Eastern Cooperative Oncology Group performance status of <2, and adequate bone marrow and vital organ function. PBMC and tumor tissue were collected from the patients for analysis of carboplatin-DNA monoadduct frequencies. Toxicity of the [^14C]carboplatin diagnostic reagent administered as a microdose was assessed using Common Terminology Criteria for Adverse Events (CTCAE). Toxicities of grade 3 and above were also collected for patient specific toxic response to full dose chemotherapy for correlation analysis to carboplatin-DNA monoadduct frequency. Patient response to chemotherapy was evaluated using the RECIST for correlation to carboplatin-DNA monoadduct frequency.
The dose of carboplatin in the diagnostic microdose was chosen to be sub-toxic and non-therapeutic, to minimize patient chemical and radiation exposure, and to result in AMS measurable carboplatin-DNA monoadducts. Nineteen patients have been administered at least one microdose of [^14C]carboplatin via IV infusion as a diagnostic reagent. Patient toxicity related to the microdose was monitored from the time of IV microdose until the patients received their first chemotherapy. […] The total radioactive dose given to a 75 kg patient after an IV microdose of [^14C]carboplatin is calculated to be 338 μCi. […]

[12] = test system: tumor biopsy sample from the bone marrow; test: microdose-induced oxaliplatin-DNA adducts in patient tumor biopsy; assay type: in vivo, human; conditions: metastatic breast patient; 48 hours post microdose; n=2 repeats
Procedure: Therefore, a tumor biopsy sample from the bone marrow of this same metastatic breast patient was collected 48 hours post microdose administration and analyzed by AMS for oxaliplatin-DNA adducts. […] Therefore, in one embodiment, a useful range of oxaliplatin-DNA adduct frequency after microdosing is 0.5-50 adducts per 10^8 nt.

[13] = test system: PBMC; test: microdose-induced oxaliplatin-DNA adducts in patients; assay type: in vivo, human
Procedure: The plasma samples were additionally processed to isolate PBMC, and the DNA was extracted and analyzed using AMS to calculate the oxaliplatin-DNA adduct frequency (both monoadducts and diadducts combined) (FIG. 17B). […] These adduct levels then decrease substantially out to 48 hours post microdosing. […] Overall, the plasma PK and time course of oxaliplatin-DNA adduct formation and repair in PBMC allowed determination of the best time to dose patients prior to biopsy in order to maximize the oxaliplatin-DNA adduct formation, allow for repair in those patients with high repair capacity, minimize the risk of radioactive contamination of PBMC and tumor samples, and also minimize the risk of radioactive contamination of the operating room by blood-borne radiocarbon.
Plasma samples were collected, filtered, and counted by liquid scintillation counting to determine plasma oxaliplatin levels. […] The range of microdose-induced adduct levels (frequencies) for the three colorectal patients was 0.1-6 adducts per 10^8 nt.

[14] = test system: 5637R; test: MTT assay IC50, oxaliplatin-resistant bladder cancer sub-line; assay type: cell-based, human
Procedure: as §3
To confirm that 5637 was the original ATCC cell line, and that 5637R originated from the parental 5637 cell line, both cultures were sent to the ATCC Cell Line Authentication Service for cell verification per the ATCC protocol. More specifically, fifteen short tandem repeat (STR) loci plus the gender determining locus, amelogenin, were amplified using the commercially available PowerPlex® 16HS Kit from Promega.
as §4

[15] = test system: 5637R; test: oxaliplatin-DNA adduct formation and repair by AMS; assay type: cell-based, human
Procedure: (§5) To characterize the oxaliplatin-DNA adduct frequency in these cell lines, cells from each cell line were seeded in 60-mm dishes at a density of 1×10^6 cells/dish and allowed to attach overnight in a 37° C. humidified atmosphere containing 5% CO2. […] The cells were then washed twice with phosphate-buffered solution (PBS) and maintained thereafter with oxaliplatin-free culture media. DNA was harvested at hours 0, 2, 4, 8, 24, 28 and 48 hours using a Promega Wizard DNA Purification Kit. Ten micrograms of DNA per sample was converted to graphite and measured by AMS for ^14C quantification. Triplicate sets of AMS experiments were performed and the data was plotted as time vs oxaliplatin-DNA adducts per 10^8 nt.

[16] = test system: 5637; test: oxaliplatin-DNA adduct formation and repair by AMS; assay type: cell-based, human
Procedure: as §5

[17] = human plasma pharmacokinetics of [14C]oxaliplatin microdose; assay type: in vivo; conditions: metastatic breast cancer patient; IV microdose
Procedure: Peripheral blood specimens were drawn into BD Vacutainer CPT™ tubes with sodium heparin from the other arm at specific time points before and after the administration of the microdose. Plasma samples collected at −5 min, 5 min, 15 min, 30 min, 2 h, 4 h, 8 h, 24 h, and 48 h post microdose injection were analyzed by liquid scintillation counting (FIG. 17A).

[18] = test system: five bladder cancer cell lines (5637, T24, TCCSUP, HT1197, and J82); test: oxaliplatin-DNA adducts by AMS in cell culture; assay type: cell-based; conditions: 4 hours
Procedure: Cells were seeded in 60-mm dishes at a density of 1×10^6 cells/dish and allowed to attach overnight in a 37° C. humidified atmosphere containing 5% C02. […] The cells were then washed twice with phosphate-buffered solution (PBS) and maintained thereafter with oxaliplatin-free culture media. DNA was harvested at hours 0, 2, 4, 8, 24 hours using the modified Wizard procedure described previously. Ten micrograms of DNA per sample was converted to graphite and measured by AMS for ^14C quantification. Triplicate sets of AMS experiments were performed and the data was plotted as time vs oxaliplatin-DNA adducts per 10^8 nt. […] Oxaliplatin-DNA monoadducts could be detected in all cell lines at all time points. […] Therefore, drug-DNA damage from microdoses of oxaliplatin are predictive of the extent of DNA modification caused by the therapeutic dose in cell culture.

[19] = chemotherapy; cited from earlier work
[20] = 24 hour culture without oxaliplatin

IC50 [3]: 0.353 µM
IC50 [5]: 0.018 µM
IC50 [7]: 4.4 µM
Structure (SMILES): Nc1ccn([C@@H]2O[C@H](CO)[C@@H](O)[C@@H]2O)c(=O)n1 [cytarabine]
levels of ARA-C incorporation among three AML cell lines [1]: highest levels of ARA-C incorporation
levels of ARA-C incorporation among three AML cell lines [2]: lowest levels of ARA-C incorporation
IC50 [4]: 60.1 µM
IC50 [6]: 5.69 µM
cytarabine-DNA adducts in resistant 5637R compared to parent 5637 [8]: fewer cytarabine-DNA adducts

Structure (SMILES): O=C1[O][Pt]2([NH][C@@H]3CCCC[C@H]3[NH]2)[O]C1=O [oxaliplatin]
IC50 [9]: 2.45 µM
loss of radiopurity per year [10]: < 2%
clinical side effects [11]: None of the clinical side effects associated with standard therapeutic doses of oxaliplatin were observed
oxaliplatin-DNA adduct frequency [12]: 14.6±4.9 per 10^8 nt
maximum oxaliplatin-DNA adducts in PBMC ([13]; metastatic breast cancer patient, first 4 hours after microdose): 8 adducts per 10^8 nt
range of microdose-induced adduct levels (frequencies) ([13]; three colorectal patients, PBMC): 0.1-6 adducts per 10^8 nt
increase of IC50 of 5637R compared to parental 5637 [14]: approximately 10 fold
IC50 ([14]; 5637R, 72 hours): 27.3 µM
oxaliplatin-DNA adducts at 24 hours ([15]; 10 μM for 24 hours): 259.2±37.3 adducts per 10^8 nucleotide
repair rate [15, 20]: 3.48±0.15 adducts per 10^8 nucleotide-hour
area under curve (AUC) of oxaliplatin-DNA adducts ([15]; 48 hour study period): 9,426±2457 adducts per 10^8 nucleotide-hour
oxaliplatin-DNA adducts at 24 hours ([16]; 10 μM for 24 hours): 710.0±32.2 adducts per 10^8 nucleotide
repair rate [16, 20]: 1.34±0.30 adducts per 10^8 nucleotides-hour
area under curve (AUC) of oxaliplatin-DNA adducts ([16]; 48 hour study period): 27,720±2,985 adducts per 10^8 nucleotide-hour
T1/2 (α), first (fast) phase [17]: 13.3 min
DNA damage concentrations (oxaliplatin-DNA adducts) ([18]; microdose 0.1 μM oxaliplatin): 50-100 adducts per 10^8 nt
DNA damage concentrations (oxaliplatin-DNA adducts) ([18]; therapeutic dose 10 μM oxaliplatin): 5,000-10,000 adducts per 10^8 nt
peak human oxaliplatin plasma concentration during chemotherapy [19]: 10 µM
